# Data published in patent US20250326769A1, “HETEROAROMATIC MACROCYCLIC ETHER CHEMOTHERAPEUTIC AGENTS” (Nuvalent, Inc., priority 2022, published 2025).
# Read-outs that look alike come from different tables or passages of the source.
# Columns and labels:
# [1] = biological target: ALK I1171N/D1203N (Homo sapiens (Human), UniProt Q9UM73, D1203N/I1171N); assay: Biochemical kinase assay, ALK I1171N/D1203N; conditions: apparent inhibitory constant, kinase domain, Morrison equation; read-out: ALK-I1171N-D1203N Ki^app
# Method in brief: (§1)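 Kinase domains (in enzyme solution: ALK I1171N/D1203N 4 nM, ROS1 0.6 nM, ROS1-G2032R 0.5 nM, TRKB 1.5 nM) were mixed with substrate solution holding 2 mM ATP and 26 μM AQT0101 (ALK, ROS1) or AQT0104 (TRKB). Initial rates from 120-min fluorescence kinetics at 30 °C were fitted to the Morrison equation (Ki^app).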
# [2] = biological target: TRKB-wt (Homo sapiens (Human), UniProt Q16620); assay: Biochemical kinase assay, TRKB-wt; conditions: apparent inhibitory constant, kinase domain, Morrison equation; read-out: TRKB-wt Ki^app
# Method in brief: as §1
# [3] = biological target: Ba/F3 EML4-ALK v1 I1171N (Homo sapiens (Human), UniProt Q9HC35+Q9UM73, I1171N); assay: Ba/F3 cell proliferation assay, EML4-ALK v1 I1171N; format: cell-based; conditions: for IC50: Ba/F3 stable cells, 72 hours, CellTiter-Glo; for ETV6-TRKB / EML4-ALK v1 I1171N: TRKB selectivity, ratio of Ba/F3 IC50 values
# Method in brief: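 Ba/F3 cells stably transformed with retroviral EML4-ALK v1 I1171N, selected by IL-3 withdrawal and puromycin, grown IL-3-free. Compounds added as 3-fold dilution series, 72 h incubation; viability by CellTiter-Glo luminescence. IC50 from percent inhibition by four-parameter logistic fit, binned A/B/C.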
# [4] = biological target: Ba/F3 EML4-ALK v1 I1171N/D1203N (Homo sapiens (Human), UniProt Q9HC35+Q9UM73, D1203N/I1171N); assay: Ba/F3 cell proliferation assay, EML4-ALK v1 I1171N/D1203N; format: cell-based; conditions: for IC50: Ba/F3 stable cells, 72 hours, CellTiter-Glo; for ETV6-TRKB / EML4-ALK v1 I1171N/D1203N: TRKB selectivity, ratio of Ba/F3 IC50 values
# Method in brief: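 Viability read by CellTiter-Glo luminescence after 72 h exposure to a 3-fold compound dilution series, with IC50 from four-parameter logistic regression. Cells were Ba/F3 rendered IL-3-independent through retroviral expression of EML4-ALK v1 I1171N/D1203N, puromycin-selected.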
# [5] = biological target: Ba/F3 ETV6-TRKB (Homo sapiens, UniProt Q16620); assay: Ba/F3 cell proliferation assay, ETV6-TRKB; format: cell-based
# Method in brief: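 Growth inhibition after 72 h compound exposure (3-fold series) was measured by CellTiter-Glo in IL-3-independent Ba/F3 cells stably expressing ETV6-TRKB. A four-parameter logistic fit of percent inhibition versus concentration gave IC50.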
# [6] = biological target: ROS1 (Homo sapiens (Human), UniProt P08922); assay: Biochemical kinase assay, ROS1-wt; conditions: apparent inhibitory constant, kinase domain, Morrison equation; read-out: ROS1-wt Ki^app
# Protocol: (§2) First, 250 nL of compound dissolved in DMSO (100-fold of the desired concentration) was dispensed into a 384-well plate. A 12.5 μL substrate solution containing ATP (2 mM) and fluorogenic phosphorylation substrate AQT0101 ([…] for ALK and ROS, AssayQuant) or AQT0104 (26 μM for TRKB, AssayQuant) in buffer (50 mM HEPES pH 7.5, […], 0.5 mM EGTA, 10 mM MgCl2) was added and mixed thoroughly. Then, a 12.5 μL kinase solution containing ALK (1.5 nM, Carna, 08-518), ALK I1171N/D1203N (4 nM, SignalChem, custom-made), ROS1 (0.6 nM, Carma, 08-163), ROS1-G2032R (0.5 nM, SignalChem, R14-121BG), or TRKB-wt (1.5 nM, SignalChem, N17-11G) kinase domains in buffer ([…] pH 7.5, 0.01% Brij-[…], 0.4 mg/mL BSA, 0.5 mM EGTA, and 10 mM MgCl2) was added and mixed thoroughly. The plate was sealed and read by SpectraMax Paradigm at λ=485 nm every 2 minutes for 120 minutes at 30° C. Initial rates of reaction (v) were calculated from the change in fluorescence intensity over time during the initial, linear portion of the reaction. Finally, apparent inhibitory constants (Ki^app) were determined from regression of v and I (inhibitor concentration) to Morrison Equation (E=enzyme concentration): […]
# (§3) Compound potency can be interpreted by binning Ki^app values against the targets: bin A for high potency, Ki^app<50 nM; bin B for medium potency, 50 nM≤Ki^app<500 nM; and bin C for low potency, Ki^app≥500 nM. […] “nd” means not determined.
# [7] = biological target: ROS1-G2032R (Homo sapiens (Human), UniProt P08922, G2032R); assay: Biochemical kinase assay, ROS1-G2032R; conditions: apparent inhibitory constant, kinase domain, Morrison equation; read-out: ROS1-G2032R Ki^app
# Protocol: as §2, §3
# [8] = Ba/F3 stable cells, 72 hours, CellTiter-Glo; read-out: ETV6-TRKB IC50
# Ba/F3 EML4-ALK v1 I1171N, sequence (Q9UM73 other isoform, or with tags, fused parts or gaps I1171N): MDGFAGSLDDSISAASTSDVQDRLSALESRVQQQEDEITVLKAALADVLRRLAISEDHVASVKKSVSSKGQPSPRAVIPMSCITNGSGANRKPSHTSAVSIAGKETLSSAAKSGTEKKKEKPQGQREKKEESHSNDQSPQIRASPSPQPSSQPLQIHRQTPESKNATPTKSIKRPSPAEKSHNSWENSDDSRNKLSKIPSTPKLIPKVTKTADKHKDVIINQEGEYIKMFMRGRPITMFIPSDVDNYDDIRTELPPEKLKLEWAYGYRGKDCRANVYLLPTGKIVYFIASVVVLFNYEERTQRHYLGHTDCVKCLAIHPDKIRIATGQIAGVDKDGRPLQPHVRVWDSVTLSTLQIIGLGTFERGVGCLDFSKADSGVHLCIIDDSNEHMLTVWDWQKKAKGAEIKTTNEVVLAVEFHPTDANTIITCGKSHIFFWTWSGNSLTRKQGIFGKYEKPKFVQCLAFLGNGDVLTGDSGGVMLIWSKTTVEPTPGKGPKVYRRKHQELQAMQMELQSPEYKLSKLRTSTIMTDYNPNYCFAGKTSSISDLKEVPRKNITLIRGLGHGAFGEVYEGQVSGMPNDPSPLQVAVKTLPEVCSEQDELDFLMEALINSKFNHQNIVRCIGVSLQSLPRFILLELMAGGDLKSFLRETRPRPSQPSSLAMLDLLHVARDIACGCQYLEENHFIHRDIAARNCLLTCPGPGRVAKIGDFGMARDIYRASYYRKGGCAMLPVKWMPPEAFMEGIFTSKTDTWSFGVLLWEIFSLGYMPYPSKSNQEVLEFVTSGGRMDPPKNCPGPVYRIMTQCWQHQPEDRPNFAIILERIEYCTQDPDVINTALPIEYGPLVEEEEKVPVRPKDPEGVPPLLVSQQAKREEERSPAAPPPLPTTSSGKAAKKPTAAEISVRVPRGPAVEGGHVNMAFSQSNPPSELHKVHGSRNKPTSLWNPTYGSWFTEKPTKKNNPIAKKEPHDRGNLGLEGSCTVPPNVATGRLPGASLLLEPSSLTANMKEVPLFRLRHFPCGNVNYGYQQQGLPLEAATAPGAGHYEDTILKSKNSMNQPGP
# ALK I1171N/D1203N, sequence (Q9UM73 1116-1392 I1171N/D1203N): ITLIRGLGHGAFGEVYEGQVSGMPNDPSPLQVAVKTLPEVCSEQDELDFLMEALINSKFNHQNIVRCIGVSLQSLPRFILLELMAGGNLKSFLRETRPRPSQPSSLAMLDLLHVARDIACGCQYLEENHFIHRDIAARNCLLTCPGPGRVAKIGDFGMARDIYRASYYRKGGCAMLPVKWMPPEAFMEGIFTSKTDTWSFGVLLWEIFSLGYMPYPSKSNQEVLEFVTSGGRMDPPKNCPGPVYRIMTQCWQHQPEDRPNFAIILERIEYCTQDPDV
# Ba/F3 EML4-ALK v1 I1171N/D1203N, sequence (Q9UM73 other isoform, or with tags, fused parts or gaps I1171N/D1203N): as the sequence (Q9UM73 other isoform, or with tags, fused parts or gaps I1171N) above, with D642N counted along it
# TRKB-wt, sequence (Q16620 538-807): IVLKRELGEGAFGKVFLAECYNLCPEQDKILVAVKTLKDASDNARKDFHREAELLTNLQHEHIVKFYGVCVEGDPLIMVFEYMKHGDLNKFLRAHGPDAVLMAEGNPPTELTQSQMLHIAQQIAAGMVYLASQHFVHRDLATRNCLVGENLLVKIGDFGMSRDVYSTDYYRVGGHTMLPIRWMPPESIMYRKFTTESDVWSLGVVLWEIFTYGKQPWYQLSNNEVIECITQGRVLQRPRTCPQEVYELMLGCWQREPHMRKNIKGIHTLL
# Ba/F3 ETV6-TRKB, sequence (Q16620 32-822 limits assumed, change not shown): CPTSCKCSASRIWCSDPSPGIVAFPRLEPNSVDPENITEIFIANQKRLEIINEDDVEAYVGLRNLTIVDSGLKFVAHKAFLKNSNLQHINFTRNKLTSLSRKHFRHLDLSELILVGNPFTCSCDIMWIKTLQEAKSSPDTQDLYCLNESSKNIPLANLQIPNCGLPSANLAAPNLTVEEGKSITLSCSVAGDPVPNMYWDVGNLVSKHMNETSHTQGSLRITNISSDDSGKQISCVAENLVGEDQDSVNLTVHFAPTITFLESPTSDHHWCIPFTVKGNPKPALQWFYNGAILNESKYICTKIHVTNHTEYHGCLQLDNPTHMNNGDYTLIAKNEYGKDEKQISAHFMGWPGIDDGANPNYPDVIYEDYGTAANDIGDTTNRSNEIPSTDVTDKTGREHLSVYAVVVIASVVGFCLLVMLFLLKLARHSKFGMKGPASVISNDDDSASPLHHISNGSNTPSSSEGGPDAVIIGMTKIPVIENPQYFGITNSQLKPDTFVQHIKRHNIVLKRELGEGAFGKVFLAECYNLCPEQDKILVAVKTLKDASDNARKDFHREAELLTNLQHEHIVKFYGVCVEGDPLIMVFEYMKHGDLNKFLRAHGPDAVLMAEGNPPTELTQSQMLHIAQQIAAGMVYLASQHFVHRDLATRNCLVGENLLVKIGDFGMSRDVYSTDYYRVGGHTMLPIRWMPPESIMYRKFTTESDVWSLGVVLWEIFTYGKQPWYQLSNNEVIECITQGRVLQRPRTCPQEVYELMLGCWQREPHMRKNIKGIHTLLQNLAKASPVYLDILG
# ROS1-G2032R, sequence (P08922 1945-2222 G2032R): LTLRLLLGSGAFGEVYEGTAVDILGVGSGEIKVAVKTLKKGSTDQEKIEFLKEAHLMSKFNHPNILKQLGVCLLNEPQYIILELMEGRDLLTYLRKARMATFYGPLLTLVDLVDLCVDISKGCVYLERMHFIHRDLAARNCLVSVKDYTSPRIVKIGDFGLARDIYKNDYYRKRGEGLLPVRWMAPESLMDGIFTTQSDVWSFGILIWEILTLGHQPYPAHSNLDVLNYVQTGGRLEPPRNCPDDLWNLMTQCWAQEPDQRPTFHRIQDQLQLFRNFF
# ROS1, sequence (P08922 1945-2222): as the sequence (P08922 1945-2222 G2032R) above, with R88G counted along it
Compound,Ki [1] [nM],Ki [2] [nM],IC50 [3] [nM],ETV6-TRKB / EML4-ALK v1 I1171N [3],IC50 [4] [nM],ETV6-TRKB / EML4-ALK v1 I1171N/D1203N [4],"IC50 [5, 8] [nM]",Ki [6] [nM],Ki [7] [nM],"IC50 ([5]; read-out: ETV6-TRKB IC50; Ba/F3 stable cells, 72 hours, CellTiter-Glo) [nM]"
"Cc1ocnc1-c1nn(CC2CC2)c2c1Cc1cccnc1-c1ccc(F)cc1[C@@H](C)Oc1cc-2cnc1N [Example 3, (20R)-3-(cyclopropylmethyl)-17-fluoro-20-methyl-5-(5-methyl-1,3-oxazol-4-yl)-21-oxa-3,4,12,24-tetraazapentacyclo[20.3.1.0^2,^6.0^8,^13.0^14,^19]hexacosa-1(25),2(6),4,8(13),9,11,14,16,18,22(26),23-undecaen-23-amine]",< 50,50 to 500,0.1 to 50,"A (bin A for very high selectivity, ratio≥30-fold)",0.1 to 50,"B (bin B for high selectivity, ratio≥10-fold but<30)",> 500,,,
"CCn1nc(C#N)c2c1-c1cnc(N)c(c1)O[C@H](C)c1cc(F)ccc1-c1nn(C)cc1C2 [Example 4, (R)-22-amino-3-ethyl-16-fluoro-10-methyl-19-methyl-20-oxa-3,4,10,11,23-pentaazapentacyclo[19.3.1.0^2,^6.0^8,^12.0^13,^18]pentacosa-1(24),2(6),4,8,11,13,15,17,21(25),22-decaene-5-carbonitrile]",,,50 to 500,"C (bin C for moderate selectivity, ratio≥1 but<10)",> 500,"D (bin D for low selectivity, ratio<1)",50 to 500,< 50,< 50,
"CCn1nc(C(N)=O)c2c1-c1cnc(N)c(c1)O[C@H](C)c1cc(F)ccc1-c1nn(C)cc1C2 [Example 5, (R)-22-amino-3-ethyl-16-fluoro-10-methyl-19-methyl-20-oxa-3,4,10,11,23-pentaazapentacyclo[19.3.1.0^2,6.0^8,12.0^13,18]pentacosa-1(24),2(6),4,8,11.13,15,17,21(25),22-decaene-5-carboxamide]",< 50,< 50,0.1 to 50,"C (bin C for moderate selectivity, ratio≥1 but<10)",50 to 500,"D (bin D for low selectivity, ratio<1)",50 to 500,,,
"C[C@H]1Oc2cc(cnc2N)-c2c(c(C(=O)N(C)C)nn2CC2CC2)Cc2cccnc2-c2ccc(F)cc21 [Example 10, N,N-dimethyl-(R)-23-amino-3-(cyclopropylmethyl)-17-fluoro-20-methyl-21-oxa-3,4,12,24-tetraazapentacyclo[20.3.1.0^2,^6.0^8,^13.0^14,^19]hexacosa-1(25),2(6),4,8(13),9,11,14,16,18,22(26),23-undecaene-5-carboxamide]",< 50,50 to 500,0.1 to 50,"A (bin A for very high selectivity, ratio≥30-fold)",0.1 to 50,"A (bin A for very high selectivity, ratio≥30-fold)",> 500,,,
"C[C@H]1Oc2cc(cnc2N)-c2c(CC3CC3)nn(C(=O)N(C)C)c2Cc2cccnc2-c2ccc(F)cc21 [Example 20, (R)-5-(N,N-dimethylcarbamoyl)-3-(cyclopropylmethyl)-17-fluoro-20-methyl-21-oxa-4,5,12,24-tetraazapentacyclo[20.3.1.0^2,^6.0^8,^13.0^14,^19]hexacosa-1(25),2(6),3,8(13),9,11,14,16,18,22(26),23-undecaen-23-ylamine]",< 50,50 to 500,0.1 to 50,"A (bin A for very high selectivity, ratio≥30-fold)",0.1 to 50,"A (bin A for very high selectivity, ratio≥30-fold)",,,,50 to 500
"C[C@H]1Oc2cc(cnc2N)-c2c(c(C(=O)N(C)C)nn2CC2CC2)Cc2cn(C)nc2-c2c(F)cc(F)cc21 [Example 32, N,N-dimethyl-(R)-22-amino-3-(cyclopropylmethyl)-14,16-difluoro-10-methyl-19-methyl-20-oxa-3,4,10,11,23-pentaazapentacyclo[19.3.1.0^2,^6.0^8,^12.0^13,^18]pentacosa-1(24),2(6),4,8,11,13,15,17,21(25),22-decaene-5-carboxamide]",< 50,≥ 500,0.1 to 50,"A (bin A for very high selectivity, ratio≥30-fold)",0.1 to 50,"A (bin A for very high selectivity, ratio≥30-fold)",> 500,,,
"C[C@H]1Oc2cc(cnc2N)-c2c(c(C(=O)N(C)C)nn2C2CCC2)Cc2cn(C)nc2-c2ccc(F)cc21 [Example 35, N,N-dimethyl-(R)-22-amino-3-cyclobutyl-16-fluoro-10-methyl-19-methyl-20-oxa-3,4,10,11,23-pentaazapentacyclo[19.3.1.0^2,^6.0^8,^12.0^13,^18]pentacosa-1(24),2(6),4,8,11,13,15,17,21(25),22-decaene-5-carboxamide]",< 50,50 to 500,0.1 to 50,"A (bin A for very high selectivity, ratio≥30-fold)",0.1 to 50,"A (bin A for very high selectivity, ratio≥30-fold)",> 500,,,
"C[C@H]1Oc2cc(cnc2N)-c2c(c(C(=O)N(C)C)nn2CC2CC2)Cc2cccnc2-c2c(F)cc(F)cc21 [Example 45, N,N-dimethyl-(R)-23-amino-3-(cyclopropylmethyl)-15,17-difluoro-20-methyl-21-oxa-3,4,12,24-tetraazapentacyclo[20.3.1.0^2,^6.0^8,^13.0^14,^19]hexacosa-1(25),2(6),4,8(13),9,11,14,16, 18,22(26),23-undecaene-5-carboxamide]",< 50,≥ 500,50 to 500,"B (bin B for high selectivity, ratio≥10-fold but<30)",0.1 to 50,"A (bin A for very high selectivity, ratio≥30-fold)",> 500,,,
"C[C@H]1Oc2cc(cnc2N)-c2c(c(C#N)nn2CC2CC2)Cc2cccnc2-c2ccc(F)cc21 [Example 66, (R)-23-amino-3-(cyclopropylmethyl)-17-fluoro-20-methyl-21-oxa-3,4,12,24-tetraazapentacyclo[20.3.1.0^2,^6.0^8,^13.0^14,^19]hexacosa-1(25),2(6),4,8(13),9,11,14,16,18,22(26),23-undecaene-5-carbonitrile]",,,50 to 500,,> 500,,,< 50,< 50,
